Results as given in publication PMC9459017, “Pharmacokinetic and pharmacodynamic similarity evaluation between an insulin glargine biosimilar product and Lantus® in healthy subjects: Pharmacokinetic parameters of both parent insulin glargine and M1 were used as endpoints” (Frontiers in Pharmacology, 2022).

What was measured:
[1] = Matrix stability of insulin glargine in whole blood and plasma; assay type: in vitro ADME; conditions: human whole blood and plasma; addressed by strict temperature control and EDTA anticoagulant during sample collection and pre-treatment
Source text: The bioanalytical method applied in this study was with a relatively higher sensitivity of 75.0 pg/ml for the parent insulin glargine ([Bhatia et al., 2018]; [Crutchlow et al., 2018]). The instability of the insulin glargine in whole blood and plasma was addressed by strict temperature control and selection of EDTA anticoagulant during sample collection and pre-treatment. […] After subcutaneous injection, the concentrations of parent insulin glargine increased to a relatively high level within 3 h, and then, a relatively flat concentration–time profile lasting for at least 12 h post-dose was observed, which implied a prolonged absorption of insulin glargine.

[2] = parameters: species or system human; conditions: in vivo, sc; for Tmax of the parent insulin glargine: human
Source text: This PK/PD comparative study was a randomized, double-blind, single-dose, two-treatment, four-period, replicate crossover, euglycemic clamp study. Subjects were randomly assigned to one of two dosing sequences and received 0.4 U/kg reference drug on two occasions and 0.4 U/kg test drug on two occasions. The dosing nurses were not blind to the treatment allocation, whereas the subjects and the clamping operators (who adjusted the glucose infusion rate) were blinded. Subjects were admitted to the clinical research unit on the night before each period. On day 1 of each period, all doses of test and reference drug were administered by subcutaneous injection, and then, subjects underwent a euglycemic clamp procedure until 24 h post-dose. There was a washout period of 10–14 days between study periods. The test drug, manufactured by Wanbang Biopharmaceuticals, was supplied as a 100 U/ml solution in 3 ml cartridges. The reference drug was procured commercially as cartridges. The test drug or reference drug was administrated by subcutaneous injection using a pen about 5 cm from the left or right side of the umbilicus, as a 0.4 U/kg dose. In each period, serial blood samples for the quantification of insulin glargine, its metabolites (M1 and M2), and C-peptide were collected at 30 min prior to dosing and 0, 1, 3, 5, 6, 7, 8, 9, 10, 11, 12, 13, 14, 16, 18, 21, and 24 h after dose using vacuum tubes with an EDTA anticoagulant. Concentrations of insulin glargine and its metabolites (M1 and M2) in plasma were simultaneously quantified by an ultra-high-performance liquid chromatography tandem mass spectrometry (UHPLC-MS/MS) method developed and fully validated before the clinical sample analysis. […] Pharmacokinetic parameters were calculated with WinNonlin Version 8.2 (Pharsight Corporation, Mountain View, California, United States) using a non-compartmental analysis method. […] Time to reach Cmax (Tmax) was also calculated. […]

[3] = acidic pH; precipitates in the subcutaneous tissue after injection to form a depot; ref Levien et al., 2002; cited from earlier work
Source text: Then, the drug is slowly released from the depot. […] These observed phenomena are consistent with those of a previous study ([Bolli et al., 2012]). Based on the comparison ...

[4] = system: healthy volunteers; experiment: 24 h euglycemic clamp, glucose infusion rate (pharmacodynamics); assay type: in vivo, human; conditions: single 0.4 U/kg s.c., N = 38; for AUCGIR(0–24 h), geometric mean / Time to GIRmax / AUCGIR(0–12 h), geometric mean / AUCGIR(12–24 h), geometric mean / GIRmax, geometric mean: healthy volunteers; for AUCGIR(0–24 h), geometric mean: 24 h euglycemic clamp 0.3 mmol/L below fasting glucose; for AUCGIR(0–24 h), geometric mean / AUCGIR(0–12 h), geometric mean / AUCGIR(12–24 h), geometric mean / GIRmax, geometric mean: raw GIR not smoothed; for Time to GIRmax / AUCGIR(0–12 h), geometric mean / AUCGIR(12–24 h), geometric mean / GIRmax, geometric mean: 24 h euglycemic clamp; for Time to GIRmax: median (range); for AUCGIR(0–12 h), intra-subject variability / AUCGIR(0–24 h), intra-subject variability / AUCGIR(12–24 h), intra-subject variability / GIRmax, intra-subject variability: replicate crossover
Source text: This PK/PD comparative study was a randomized, double-blind, single-dose, two-treatment, four-period, replicate crossover, euglycemic clamp study. Subjects were randomly assigned to one of two dosing sequences and received 0.4 U/kg reference drug on two occasions and 0.4 U/kg test drug on two occasions. The dosing nurses were not blind to the treatment allocation, whereas the subjects and the clamping operators (who adjusted the glucose infusion rate) were blinded. Subjects were admitted to the clinical research unit on the night before each period. On day 1 of each period, all doses of test and reference drug were administered by subcutaneous injection, and then, subjects underwent a euglycemic clamp procedure until 24 h post-dose. There was a washout period of 10–14 days between study periods. For each subject, the 24 h euglycemic clamp procedure aimed to maintain the clamp value at 0.3 mmol/L below the subject’s mean fasting glucose level in each period. Each subject began fasting from 20:00 on the day prior to dosing in each period and continued fasting during the clamp study. Body weight and vital signs were measured after the bladder was emptied, and the clamp study was performed after resting for at least 30 min. One upper limb was cannulated for the infusion of glucose (20% dextrose solution in water). The contralateral upper limb was cannulated for PK blood sample collection and blood glucose concentration measurement. Blood glucose level was measured by using an automatic blood glucose analyzer every 20 min from 0 to 3.0 h, every 10 min from 3.0 to 12.0 h, every 15 min from 12.0 to 16.0 h, every 30 min from 16.0 to 21.0 h, and every 15 min from 21.0 to 24.0 h. After each glucose measurement, the glucose infusion rate (GIR) was manually adjusted by the operator based on the experience of the change rate of blood glucose to maintain the blood glucose concentration within ±10% of the clamp target. During the entire procedure, subjects should stay awake, decumbent, or semi-decumbent as much as possible and relieve themselves in time with the help of medical staff. PD parameters were calculated with WinNonlin Version 8.2 using the trapezoidal rule. Raw GIR profiles were not smoothed before calculation of PD parameters. Area under the glucose infusion rate–time curve (AUCGIR(0–24 h)) and peak of glucose infusion rate (GIRmax) were measured as primary endpoints. Partial area under the glucose infusion rate–time curve (AUCGIR(0–12 h) and AUCGIR(12–24 h)) was the secondary PD parameter. Another meaningful PD endpoint was time to GIRmax. The primary and secondary PD parameters, AUCGIR(0–24 h), GIRmax, AUCGIR(0–12 h), and AUCGIR(12–24 h), were log transformed prior to analysis. The same linear mixed-effects model as PK comparison was used for the PD comparison. For each PD parameter, the difference in geometric means along with the 90% CIs was back transformed to produce the ratio of geometric means and the CI comparing the test drug to reference drug. PD similarity was to be concluded if the […] for both primary and secondary PD parameters were contained within the interval of 80.00%–125.00%. Intra-subject and inter-subject variability were reported for each primary and secondary PD parameters.

[5] = system: healthy volunteers; experiment: as above; assay type: in vivo, human; conditions: single 0.4 U/kg s.c., linear mixed-effects model, N = 38
[6] = system: endogenous insulin; experiment: Plasma C-peptide reduction during clamp (suppression of endogenous insulin); assay type: in vivo, human; conditions: single 0.4 U/kg s.c., healthy volunteers, plasma C-peptide by ELISA during 24 h clamp, mean ± SD
Method: In each period, serial blood samples for the quantification of insulin glargine, its metabolites (M1 and M2), and C-peptide were collected at 30 min prior to dosing and 0, 1, 3, 5, 6, 7, 8, 9, 10, 11, 12, 13, 14, 16, 18, 21, and 24 h after dose using vacuum tubes with an EDTA anticoagulant.
C-peptide in plasma was quantified by a fully validated enzyme-linked immunosorbent assay (ELISA) method, of which the calibration range was 28.9–925 pmol/L.
C-peptide concentration was measured in parallel to insulin concentrations throughout the experiment to compare the extent and consistency of suppression of endogenous insulin between the two drugs.
The quality of the performance of the clamp study was estimated from two aspects. On one hand, the blood glucose level during the entire clamping process was evaluated by calculating the mean difference between the blood glucose concentration and the clamp target, mean square deviation, and coefficient of variation of the blood glucose concentrations. On the other hand, the plasma C-peptide concentration profiles and the ratio of C-peptide reduction were evaluated.

[7] = system: healthy subjects; experiment: Safety assessment in healthy subjects; conditions: single 0.4 U/kg s.c. doses, healthy male subjects
Method: Prior to dose and at various time points post-dose and post-study, assessments of safety and tolerability were conducted by monitoring adverse events (AEs), vital signs, physical examinations, laboratory tests (hematology, blood biochemistry, urinalysis, and coagulation function), and 12-lead ECG.

Substance | Stability in whole blood and plasma [1] | Duration of relatively flat concentration–time profile post-dose [2] | Solubility [3] | AUCGIR(0–24 h), geometric mean [4] [mg/kg/min·h] | Time to GIRmax [4] | AUCGIR(0–12 h), geometric mean [4] [mg/kg/min·h] | AUCGIR(12–24 h), geometric mean [4] [mg/kg/min·h] | GIRmax, geometric mean [4] [mg/kg/min] | AUCGIR(0–12 h), intra-subject variability [4] [%] | AUCGIR(0–24 h), intra-subject variability [4] [%] | AUCGIR(12–24 h), intra-subject variability [4] [%] | GIRmax, intra-subject variability [4] [%] | AUCGIR(0–12 h), ratio of geometric means test/reference [5] [%] | AUCGIR(0–24 h), ratio of geometric means test/reference [5] [%] | AUCGIR(12–24 h), ratio of geometric means test/reference [5] [%] | GIRmax, ratio of geometric means test/reference [5] [%] | Ratio of C-peptide reduction [6] | Tmax of the parent insulin glargine [2] | Clinically significant changes in vital signs, physical examinations, laboratory tests or 12-lead ECG [7] | Safety profiles with regard to AEs [7]
insulin glargine | instability | at least 12 h | soluble at an acidic pH | – | – | – | – | – | – | – | – | – | – | – | – | – | – | – | – | –
recombinant insulin glargine [Test drug] | – | – | – | 36.3 | 12.3 (3.85, 21.5) | 13.52 | 22.45 | 2.66 | 70.7 | 36.4 | 27.3 | 26.5 | 100.52 | 105.41 | 105.91 | 105.00 | 56.5% ± 14.1 | 8 (1,16) h | – | –
Lantus [Reference drug] | – | – | – | 34.4 | 11.8 (4, 19.0) | 13.45 | 21.19 | 2.54 | 39.0 | 28.3 | 20.2 | 25.5 | – | – | – | – | 57.5% ± 14.4 | 3 (1,16) h | no changes | comparable
